Results: US11485741B2, “Macrocyclic toll-like receptor 7 (TLR7) agonists” (BRISTOL-MYERS SQUIBB COMPANY, priority 2018, dated 2022)
Like-named read-outs stand apart in the source and are kept apart here.

Assays:
human TLR7 = target: T1, human TLR7 (Homo sapiens, UniProt Q9NYK1); experiment: HEK-Blue TLR7 reporter assay (SEAP reporter); assay type: cell-based; details: HEK-Blue TLR7 cells, 18 h treatment, SEAP readout; average if more than one assay; read-out: TLR7 Agonism HEK Blue ™ Assay EC50
T1 construct: host or cells: HEK-Blue TLR7 cells (engineered human embryonic kidney cells)
T1 sequence (Q9NYK1 27-1049): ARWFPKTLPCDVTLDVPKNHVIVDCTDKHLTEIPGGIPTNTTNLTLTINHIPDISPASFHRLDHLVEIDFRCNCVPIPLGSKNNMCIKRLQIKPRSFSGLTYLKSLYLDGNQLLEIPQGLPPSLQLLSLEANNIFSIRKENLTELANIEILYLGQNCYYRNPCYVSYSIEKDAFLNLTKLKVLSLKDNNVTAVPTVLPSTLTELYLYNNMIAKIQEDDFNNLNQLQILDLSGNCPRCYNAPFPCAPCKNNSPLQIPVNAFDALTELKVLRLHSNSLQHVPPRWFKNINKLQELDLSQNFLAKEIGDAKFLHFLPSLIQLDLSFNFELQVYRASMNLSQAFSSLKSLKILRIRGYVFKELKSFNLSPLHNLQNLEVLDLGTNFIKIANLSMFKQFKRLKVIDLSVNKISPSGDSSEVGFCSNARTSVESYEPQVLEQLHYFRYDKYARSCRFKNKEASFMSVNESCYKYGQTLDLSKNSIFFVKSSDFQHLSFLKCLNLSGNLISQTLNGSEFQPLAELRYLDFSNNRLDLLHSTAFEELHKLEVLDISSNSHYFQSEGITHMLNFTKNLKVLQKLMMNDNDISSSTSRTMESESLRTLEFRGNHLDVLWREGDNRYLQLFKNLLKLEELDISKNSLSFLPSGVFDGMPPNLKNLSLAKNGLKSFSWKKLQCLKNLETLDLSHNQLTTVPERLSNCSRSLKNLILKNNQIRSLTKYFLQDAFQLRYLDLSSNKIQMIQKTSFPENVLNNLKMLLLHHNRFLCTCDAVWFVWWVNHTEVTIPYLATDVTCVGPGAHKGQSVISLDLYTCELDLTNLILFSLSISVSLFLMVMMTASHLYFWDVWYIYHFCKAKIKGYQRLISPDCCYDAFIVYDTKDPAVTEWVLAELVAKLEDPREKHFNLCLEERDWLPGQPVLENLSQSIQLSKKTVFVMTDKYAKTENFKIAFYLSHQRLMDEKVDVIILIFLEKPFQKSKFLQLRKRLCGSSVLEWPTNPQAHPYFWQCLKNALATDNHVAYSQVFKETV
Excerpt: Table A presents biological activity data for compounds disclosed herein. One set of data relates TLR7 agonism activity using the HEK-Blue™ TLR7 reporter assay, as described in Example 11 hereinbelow. Another set of data relates to the induction of interleukin 6 (IL-6), a cytokine that plays an important role in the TLR7 pathway. […] In some instances, more that one TLR7 agonism or IL-6 induction assay was made; if so, the reported value is an average.
This example describes a method for assaying TLR7 agonist activity of the compounds disclosed in this specification.
HEK-Blue™ TLR7 cells were added to each well of a 384-well tissue-culture plate (15,000 cells per well) and incubated 16-18 h at 37° C., 5% CO2. Compounds (100 nl) were dispensed into wells containing the HEK-Blue™ TLR cells and the treated cells were incubated at 37° C., 5% CO2. After 18 h treatment ten microliters of freshly-prepared Quanti-Blue™ reagent (Invivogen) was added to each well, incubated for 30 min (37° C., 5% CO2) and SEAP levels measured using an Envision plate reader (OD=620 nm). […] EC50's can be determined with software such as Graphpad Prism™.

interleukin 6 (IL-6) = experiment: Interleukin 6 induction assay in human whole blood (AlphaLISA); assay type: cell-based; details: 20 h at 37° C., 100% set by resiquimod reference at 10 μM, average if more than one assay, read-out: IL-6 Induction EC50 (nM) (normalized 10 μM)
Excerpt: Table A presents biological activity data for compounds disclosed herein. One set of data relates TLR7 agonism activity using the HEK-Blue™ TLR7 reporter assay, as described in Example 11 hereinbelow. Another set of data relates to the induction of interleukin 6 (IL-6), a cytokine that plays an important role in the TLR7 pathway. […] In some instances, more that one TLR7 agonism or IL-6 induction assay was made; if so, the reported value is an average. This example describes a method for assaying interleukin 6 (IL 6) induction by compounds disclosed in this specification. Compounds suspended in DMSO were transferred to individual wells of a Matrix Technologies clear, V-bottom 384-well plate using ECHO acoustic liquid handling technology (25 nL per well). Human whole-blood samples (25 uL) were added to each well using a CyBio FeliX liquid handling instrument and the plate was shaken on a plate shaker for three minutes before incubating the reaction mixtures at 37° C. for 20 h. Basel RPMI 1640 medium (supplemented with L-glutamine) was then added to each well (25 uL per well) prior to liberating plasma from each sample by centrifugation (450×g, 5 min, ambient temperature). Treated plasma samples (3 uL) were subsequently transferred to individual wells of a white, shallow, 384-well ProxiPlate (PerkinElmer) using the FeliX liquid handling instrument and their IL6 levels were measured using AlphaLISA technology as described by the manufacturer (PerkinElmer).

Row | SMILES | EC50 (human TLR7) [nM] | EC50 (interleukin 6 (IL-6); Homo sapiens, 20 h) [nM] | EC50 (interleukin 6 (IL-6)) [nM]
1 | Nc1nc2nc3c1nc(O)n3Cc1cc(cc(Oc3ccc(CNC4CC4)cc3)c1)C/C=C/CCO2 [IIa-18] | 10 | 32 | 
2 | Nc1nc2nc3c1nc(O)n3Cc1ccc(-c3cc(C(=O)NCCCN4CCCC4=O)[nH]n3)c(c1)C/C=C/CCO2 [IIb-40] | 14 | 160 | 
3 | Nc1nc2nc3c1nc(O)n3Cc1cc(cc(Oc3ccc(CNC4CCC4)cc3)c1)C/C=C\CCO2 [IIa-13] | 0.94 | 13 | 
4 | Nc1nc2nc3c1nc(O)n3Cc1ccc(-c3cnn(CCNC4CCC4)c3)c(c1)CCCCCO2 [IIb-08] | 1.7 | 6.2 | 
5 | Nc1nc2nc3c1nc(O)n3Cc1ccc(-c3ccc(CNC4CC(O)C4)cc3)c(c1)C/C=C/CCO2 (stereo not shown) [IIb-23] | 0.81 | 2 | 
6 | Nc1nc2nc3c1nc(O)n3Cc1ccc(OC3CCNCC3)c(c1)C/C=C/CCO2 [IIc-01] | 3.7 | 5 | 
7 | Nc1nc2nc3c1nc(O)n3Cc1ccc(Nc3cccc(CNC4CCC4)c3)c(c1)C/C=C/CCO2 [IId-01] | 15 | 60 | 
8 | Nc1nc2nc3c1nc(O)n3Cc1cc(cc(Oc3ccc(CNC4CCC4)cc3)c1)C/C=C/CCO2 [IIa-17] | 8.5 | 44 | 
9 | Nc1nc2nc3c1nc(O)n3Cc1ccc(-c3ccc(CNC4CC(F)(F)C4)cc3)c(c1)C/C=C/CCO2 [IIb-25] | 1.5 | 0.81 | 
10 | Nc1nc2nc3c1nc(O)n3Cc1ccc(-c3cnn(CCNC4CC4)c3)c(c1)CCCCCO2 [IIb-03] | 2.9 | 65 | 
11 | Nc1nc2nc3c1nc(O)n3Cc1ccc(-c3ccc(CNC4CCC4)cc3)c(c1)C/C=C/CCO2 [IIb-10] | 1.1 | 0.41 | 
12 | Nc1nc2nc3c1nc(O)n3Cc1ccc(-c3ccc(CNC4CCC4)cc3)c(c1)CCCCCCO2 [IIb-18] | 3.8 | 34 | 
13 | Nc1nc2nc3c1nc(O)n3Cc1ccc(Oc3ccc(CNC4CCC4)cc3)c(c1)C/C=C\CCO2 [IIa-06] | 1 | 2.2 | 
14 | Nc1nc2nc3c1nc(O)n3Cc1ccc(Oc3ccc(CNC4CC4)cc3)c(c1)CCCCCO2 [IIa-11] | 6.6 | 5.5 | 
15 | Nc1nc2nc3c1nc(O)n3Cc1ccc(-c3cnn(CC(=O)NC4CNC4)c3)c(c1)C/C=C/CCO2 [IIb-38] | 22 | 1000 | 
16 | Nc1nc2nc3c1nc(O)n3Cc1ccc(-c3ccc(CNC4CCC4)cc3)c(c1)C/C=C/CCCO2 [IIb-16] | 1.2 | 3.6 | 
17 | Nc1nc2nc3c1nc(O)n3Cc1ccc(OCC(=O)NC3CNC3)c(c1)C/C=C/CCO2 [IIe-02] | 70 | 1100 | 
18 | Nc1nc2nc3c1nc(O)n3Cc1ccc(O)c(c1)C/C=C/CCO2 [Compound B3, reference compound] | 68 | 400 | 
19 | CC1(NCc2ccc(-c3ccc4cc3C/C=C/CCOc3nc(N)c5nc(O)n(c5n3)C4)cc2)CCC1 [IIb-26] | 0.26 | 1 | 
20 | Nc1nc2nc3c1nc(O)n3Cc1ccc(-c3ccc(CNC4CC(O)C4)cc3)c(c1)C/C=C/CCO2 (stereo not shown) [IIb-24] | 0.68 |  | 2.7
21 | Nc1nc2nc3c1nc(O)n3Cc1ccc(-c3cc(CNC4CCC4)[nH]n3)c(c1)C/C=C/CCO2 [IIb-14] | 3 | 5.3 | 
22 | COC(=O)CNCc1ccc(Oc2ccc3cc2C/C=C/CCOc2nc(N)c4nc(O)n(c4n2)C3)cc1 [IIa-10] | 4.3 | 50 | 
23 | Nc1nc2nc3c1nc(O)n3Cc1ccc(Oc3cccc(CNC4CC4)c3)c(c1)CCCCCO2 [IIa-12] | 29 | 110 | 
